Key:
Assay in all cases: Bliss excess, mean over the matrix (fraction); higher = more synergy
[1] = system: ONS-76 (Other Solid Carcinomas)
Procedure, shortened: (§1)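 Bliss excess equals the observed combination effect minus the expected value EA + EB − EA·EB, where EA and EB are the effects of each agent alone. Combination Emax is the second-highest inhibition within the matrix. Inhibition was scaled from CellTiter-Glo 2.0 luminescence, with 0 set by vehicle wells and 1 by blank wells, after 72 hours of two-drug dosing of cells plated in 1536-well plates.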

[2] = system: SK-MES-1 (Squamous Cell Lung Carcinoma)
Procedure, shortened: as §1

[3] = system: CAPAN-2 (Pancreatic Carcinoma)
Procedure, shortened: as §1

[4] = system: BICR22 (Oral Cavity Carcinoma)
Procedure, shortened: as §1

CAS-1 (Glioblastoma) = system: CAS-1 (Glioblastoma)
Procedure, shortened: as §1

[5] = system: NCI-H1581 (Non-Small Cell Lung Carcinoma)
Procedure, shortened: as §1

[6] = system: COR-L311 (Small Cell Lung Carcinoma)
Procedure, shortened: as §1

[7] = system: CAL-29 (Bladder Carcinoma)
Procedure, shortened: as §1

ARH-77 (Non-Cancerous) = system: ARH-77 (Non-Cancerous)
Procedure, shortened: as §1

[8] = system: NCI-H1650 (Lung Adenocarcinoma)
Procedure, shortened: as §1

[9] = system: CCK-81 (Colorectal Carcinoma)
Procedure, shortened: as §1

[10] = system: COLO-824 (Breast Carcinoma)
Procedure, shortened: as §1

GI-ME-N (Neuroblastoma) = system: GI-ME-N (Neuroblastoma)
Procedure, shortened: as §1

[11] = system: TT (Thyroid Gland Carcinoma)
Procedure, shortened: as §1

Hs-445 (Non-Cancerous) = system: Hs-445 (Non-Cancerous)
Procedure, shortened: as §1

A498 (Kidney Carcinoma) = system: A498 (Kidney Carcinoma)
Procedure, shortened: as §1

[12] = system: SK-MG-1 (Low Grade Glioma)
Procedure, shortened: as §1

[13] = system: NCI-H1666 (Lung Adenocarcinoma)
Procedure, shortened: as §1

[14] = system: NCI-H2066 (Squamous Cell Lung Carcinoma)
Procedure, shortened: as §1

[15] = system: SISO (Cervical Carcinoma)
Procedure, shortened: as §1

| Compound | Bliss excess [1] | Bliss excess [2] | Bliss excess [3] | Bliss excess [4] | Bliss excess (CAS-1 (Glioblastoma)) | Bliss excess [5] | Bliss excess [6] | Bliss excess [7] | Bliss excess (ARH-77 (Non-Cancerous)) | Bliss excess [8] | Bliss excess [9] | Bliss excess [10] | Bliss excess (GI-ME-N (Neuroblastoma)) | Bliss excess [11] | Bliss excess (Hs-445 (Non-Cancerous)) | Bliss excess (A498 (Kidney Carcinoma)) | Bliss excess [12] | Bliss excess [13] | Bliss excess [14] | Bliss excess [15] |
| --- | --- | --- | --- | --- | --- | --- | --- | --- | --- | --- | --- | --- | --- | --- | --- | --- | --- | --- | --- | --- |
| Cc1c2c(nn1C)CSCc1cc(n(C)n1)CSc1cc(c3ccccc3c1)OCCCc1c(C(=O)O)n(C)c3c-2c(Cl)ccc13 [AZD5991] + C=CCn1c(=O)c2cnc(Nc3ccc(N4CCN(C)CC4)cc3)nc2n1-c1cccc(C(C)(C)O)n1 [AZD1775] (first compound max 1 µM, partner max 1 µM) | -0.0214 | -0.0183 | 0.0292 | -0.0107 | 0.0452 | -0.0365 | -0.0655 | 0.0878 | -0.0418 | 0.0047 | -0.0116 | -0.0593 | 0.0646 | 0.007 | 0.0139 | 0.0231 | 0.0333 | 0.0037 | -0.0231 | -0.0417 |
| CC1(C)CCC(CN2CCN(c3ccc(C(=O)NS(=O)(=O)c4ccc(NCC5CCOCC5)c([N+](=O)[O-])c4)c(Oc4cnc5[nH]ccc5c4)c3)CC2)=C(c2ccc(Cl)cc2)C1 [Venetoclax] + CN(C)CCCOc1ccc(-c2ccc3ncc4c(c3c2)n(C2CCOCC2)c(=O)n4C)cn1 [AZD0156] (first compound max 1 µM, 7x7, partner max 1 µM) | -0.054 | -0.0106 | -0.0191 | -0.0381 | -0.0046 | 0.0054 | 0.0654 | -0.0219 | 0.0357 | -0.0361 | -0.0054 | 0.0588 | -0.041 | -0.13 | -0.035 | -0.029 | -0.0527 | -0.0085 | -0.0439 | 0.0004 |
| COc1nnc2ccc(N3CCC(c4ccc(OCCN5CCN(C)C(=O)[C@H]5C)cc4)CC3)nn12 [AZD5153] + C[C@@H]1COCCN1C2=NC(=NC(=C2)C3(CC3)[S@](=N)(=O)C)C4=C5C=CNC5=NC=C4 [AZD6738] (first compound max 1 µM, 7x7, partner max 10 µM) | -0.0698 | 0.0093 | 0.0047 | -0.116 | 0.0116 | 0.0013 | -0.0501 | 0.0219 | -0.0293 | 0.0238 | 0.0184 | 0.0541 | 0.0858 | 0.0167 | -0.0475 | -0.0563 | -0.0065 | -0.0271 | -0.0454 | 0.008 |
| C=CCn1c(=O)c2cnc(Nc3ccc(N4CCN(C)CC4)cc3)nc2n1-c1cccc(C(C)(C)O)n1 [AZD1775] + C[C@@H]1COCCN1C2=NC(=NC(=C2)C3(CC3)[S@](=N)(=O)C)C4=C5C=CNC5=NC=C4 [AZD6738] (first compound max 1 µM, partner max 10 µM) | -0.0256 | -0.0223 | -0.0608 | 0.0233 | -0.0535 | 0.0228 | 0.0133 | -0.006 | 0.0324 | -0.0054 | -0.0359 | 0.0691 | -0.0397 | -0.0676 | -0.0017 | -0.0536 | -0.0173 | 0.0189 | 0.0216 | 0.0461 |
| CN(CCO)CC[C@H](CSc1ccccc1)Nc1ccc(S(=O)(=O)NC(=O)c2ccc(N3CCC([C@@H](O)c4ccccc4-c4ccc(Cl)cc4)CC3)cc2)cc1S(=O)(=O)C(F)(F)F [AZD4320] + CN(C)CCCOc1ccc(-c2ccc3ncc4c(c3c2)n(C2CCOCC2)c(=O)n4C)cn1 [AZD0156] (first compound max 1 µM, 7x7, partner max 1 µM) | -0.0494 | -0.005 | -0.033 | -0.0364 | -0.0328 | 0.0018 | 0.0177 | -0.0187 | -0.0283 | -0.0443 | -0.0009 | 0.0031 | -0.0454 | -0.0778 | -0.0732 | -0.0358 | -0.0377 | -0.0508 | -0.092 | -0.0343 |
| CC(=O)c1c(C)c2cnc(Nc3ccc(N4CCNCC4)cn3)nc2n(C2CCCC2)c1=O [Palbociclib] + Cn1cnc2c(F)c(Nc3ccc(Br)cc3Cl)c(C(=O)NOCCO)cc21 [Selumetinib] (first compound max 10 µM, 7x7, partner max 10 µM) | 0.0132 | -0.0088 | -0.0199 | 0.102 | -0.018 | 0.0466 | -0.0334 | 0.0021 | -0.0147 | -0.0775 | 0.0832 | -0.0652 | -0.0012 | 0.0418 | -0.0852 | -0.0228 | 0.0489 | -0.0183 | -0.0344 | -0.0488 |
| CC1(C)CCC(CN2CCN(c3ccc(C(=O)NS(=O)(=O)c4ccc(NCC5CCOCC5)c([N+](=O)[O-])c4)c(Oc4cnc5[nH]ccc5c4)c3)CC2)=C(c2ccc(Cl)cc2)C1 [Venetoclax] + Cn1cnc2c(F)c(Nc3ccc(Br)cc3Cl)c(C(=O)NOCCO)cc21 [Selumetinib] (first compound max 1 µM, 7x7, partner max 3 µM) | -0.141 | -0.0572 | -0.0256 | -0.0691 | -0.035 | -0.0158 | -0.0367 | -0.0137 | 0.0304 | -0.0457 | 0.0338 | 0.0356 | -0.0744 | -0.0799 | 0.0401 | 0.024 | -0.0062 | 0.025 | -0.0074 | -0.0162 |
| Cc1cc2ncnn2cc1Nc1ncc2c(n1)n(C1CCOCC1)c(=O)n2C [AZD7648] + CN(C)CCCOc1ccc(-c2ccc3ncc4c(c3c2)n(C2CCOCC2)c(=O)n4C)cn1 [AZD0156] (first compound max 10 µM, 7x7, partner max 1 µM) | -0.0014 | 0.0394 | -0.0168 | -0.0192 | -0.0246 | 0.0088 | -0.054 | -0.0282 | -0.049 | -0.0133 | -0.0003 | -0.0145 | 0.0015 | -0.0269 | -0.0388 | -0.0212 | 0.0047 | -0.0072 | -0.026 | 0.0339 |
| NC1(C(=O)N[C@@H](CCO)c2ccc(Cl)cc2)CCN(c2ncnc3[nH]ccc23)CC1 [Capivasertib] + CCN(CCO)CCCOc1ccc2c(Nc3cc(CC(=O)Nc4cccc(F)c4)[nH]n3)ncnc2c1 [AZD2811] (first compound max 10 µM, 7x7, partner max 1 µM) | -0.0191 | 0.0121 | -0.0213 | -0.0012 | -0.0688 | -0.11 | -0.0461 | -0.0319 | -0.0156 | 0.0052 | 0.0065 | -0.0183 | -0.0557 | 0.002 | -0.0895 | -0.0548 | 0.0626 | -0.0482 | -0.0641 | 0.0229 |
| Cn1cnc2c(F)c(Nc3ccc(Br)cc3Cl)c(C(=O)NOCCO)cc21 [Selumetinib] + CC(C)n1c(=O)n(C)c2cnc3cc(F)c(-c4ccc(OCCCN5CCCCC5)nc4)cc3c21 [AZD1390] (first compound max 10 µM, 7x7, partner max 0.3 µM) | -0.0108 | -0.0487 | -0.0005 | -0.027 | -0.053 | 0.0074 | -0.0541 | -0.0073 | -0.007 | -0.0572 | 0.0157 | -0.018 | -0.0399 | -0.0364 | -0.0425 | -0.0489 | -0.049 | 0.0058 | -0.061 | -0.0395 |
| Cc1c2c(nn1C)CSCc1cc(n(C)n1)CSc1cc(c3ccccc3c1)OCCCc1c(C(=O)O)n(C)c3c-2c(Cl)ccc13 [AZD5991] + C1CN(CCC1(C(=O)N[C@@H](CCO)C2=CC=C(C=C2)Cl)N)C3=NC=NC4=C3C=CN4 [Capivasertib] (first compound max 1 µM, 7x7, partner max 3 µM) | -0.0003 | 0.0568 | 0.0085 | 0.119 | -0.0094 | -0.0048 | 0.0059 | -0.0211 | -0.037 | 0.012 | 0.0555 | 0.01 | -0.0245 | -0.0499 | -0.0545 | -0.0091 | 0.0354 | 0.0151 | -0.0197 | -0.0021 |
| CC(=O)c1c(C)c2cnc(Nc3ccc(N4CCNCC4)cn3)nc2n(C2CCCC2)c1=O [Palbociclib] + Cc1c2c(nn1C)CSCc1cc(n(C)n1)CSc1cc(c3ccccc3c1)OCCCc1c(C(=O)O)n(C)c3c-2c(Cl)ccc13 [AZD5991] (first compound max 10 µM, 7x7, partner max 1 µM) | -0.0372 | -0.0463 | -0.0593 | -0.0568 | 0.0001 | -0.0173 | -0.0139 | -0.0532 | -0.0248 | -0.0409 | 0.0565 | -0.0768 | -0.0873 | 0.0684 | -0.0598 | -0.0779 | -0.0698 | -0.0198 | -0.0361 | -0.0282 |
| CCN(CCO)CCCOc1ccc2c(Nc3cc(CC(=O)Nc4cccc(F)c4)[nH]n3)ncnc2c1 [AZD2811] + C[C@@H]1COCCN1C2=NC(=NC(=C2)C3(CC3)[S@](=N)(=O)C)C4=C5C=CNC5=NC=C4 [AZD6738] (first compound max 1 µM, 7x7, partner max 10 µM) | -0.0864 | -0.0484 | -0.0412 | -0.059 | -0.0818 | -0.0438 | -0.0642 | -0.0023 | 0.0254 | -0.0801 | -0.0388 | -0.0843 | -0.0437 | -0.0905 | -0.01 | -0.0832 | -0.0271 | -0.0633 | -0.0114 | 0.0006 |
| COc1nnc2ccc(N3CCC(c4ccc(OCCN5CCN(C)C(=O)[C@H]5C)cc4)CC3)nn12 [AZD5153] + Cn1cnc2c(F)c(Nc3ccc(Br)cc3Cl)c(C(=O)NOCCO)cc21 [Selumetinib] (first compound max 1 µM, 7x7, partner max 10 µM) | -0.0127 | -0.0219 | 0.0202 | 0.0497 | -0.0548 | -0.0141 | -0.0334 | 0.0393 | -0.0251 | -0.0155 | 0.0649 | 0.007 | -0.0636 | -0.0018 | -0.0232 | 0.0016 | -0.0443 | -0.0631 | -0.0123 | -0.008 |
